Source: patent US10597388B2, “Pyridazinone herbicides” (FMC CORPORATION, priority 2014, dated 2020)

Columns and labels:
Format in all cases: in vivo
[1] = test system: windgrass (Apera spica-venti); assay: Test D controlled growth environment herbicide test, pre- and postemergence
Method in brief: (§1)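 Rating is visual, 0–100 scale (100 = complete control), made against untreated plants 14–21 d after treatment in controlled growth conditions. Postemergence sprays went onto 1- to 4-leaf plants in peat medium; preemergence sprays onto silt loam after sowing; formulation included a surfactant.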

[2] = test system: field poppy (Papaver rhoeas); assay: as above
Method in brief: as §1

[3] = test system: barley, winter (winter barley, Hordeum vulgare); assay: as above
Method in brief: as §1

[4] = test system: foxtail, green (green foxtail, Setaria viridis); assay: as above
Method in brief: as §1

[5] = test system: deadnettle (henbit deadnettle, Lamium amplexicaule); assay: as above
Method in brief: as §1

[6] = test system: blackgrass (Alopecurus myosuroides); assay: as above
Method in brief: as §1

[7] = test system: lambsquarters (Chenopodium album); assay: as above
Method in brief: as §1

[8] = test system: radish, wild (wild radish, Raphanus raphanistrum); assay: as above
Method in brief: as §1

[9] = test system: chamomile (scentless chamomile, Matricaria inodora); assay: as above
Method in brief: as §1

[10] = test system: mustard, wild (wild mustard, Sinapis arvensis); assay: as above
Method in brief: as §1

[11] = test system: waterhemp_RES2 (ALS & HPPD resistant common waterhemp, Amaranthus rudis); assay: Test E greenhouse herbicide test, postemergence
Method in brief: (§2)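 Seedlings were raised in pots of peat moss and vermiculite medium with starter nutrients until they reached the 1- to 4-leaf stage. They were then treated postemergence and held in a greenhouse for 14–21 d. Finally, response was scored visually on a 0–100 control scale.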

[12] = test system: waterhemp_RES1 (ALS & Triazine resistant common waterhemp, Amaranthus rudis); assay: Test E greenhouse herbicide test, postemergence
Method in brief: as §2

[13] = Postemergence, 31 g ai/ha, scale 0 to 100 (0 no effect, 100 complete control)
[14] = Postemergence, 125 g ai/ha, visual rating on scale 0 (no effect) to 100 (complete control), 14 to 21 d
[15] = Postemergence, 250 g ai/ha, scale 0 to 100 (0 no effect, 100 complete control)
[16] = Preemergence, 62 g ai/ha, scale 0 to 100 (0 no effect, 100 complete control)
[17] = Preemergence, 125 g ai/ha, scale 0 to 100 (0 no effect, 100 complete control)
[18] = Preemergence, 250 g ai/ha, scale 0 to 100, 0 no effect, 100 complete control
[19] = postemergence, 62 g ai/ha, scale 0 to 100, 0 no effect, 100 complete control
[20] = 16 g ai/ha, visual, scale 0 no effect to 100 complete control
[21] = 31 g ai/ha, visual, scale 0 no effect to 100 complete control
[22] = 62 g ai/ha, scale 0 to 100 (0 no effect, 100 complete control)
[23] = 125 g ai/ha, scale 0 to 100 (0 no effect, 100 complete control)

Cc1ccc2sc(C)c(-c3c(OC(=O)OC(C)C)c(C)nn(C)c3=O)c2c1 [Compound 66]
Windgrass plant response rating [1, 13]: 75
Plant response rating, Windgrass [1, 14]: 85
Plant response rating, Windgrass [1, 15]: 100
Plant response rating (scale of 0 to 100), Windgrass ([1]; Preemergence, 31 g ai/ha): 70
Plant response rating, Windgrass [1, 16]: 75
Plant response rating, Windgrass [1, 17]: 85
Plant response rating, Windgrass [1, 18]: 85
Plant response rating, Windgrass [1, 19]: 80
Field Poppy plant response rating [2, 13]: 70
Plant response rating, Field Poppy [2, 14]: 95
Plant response rating, Field Poppy [2, 15]: 95
Plant response rating (scale of 0 to 100), Field Poppy ([2]; Preemergence, 31 g ai/ha): 100
Plant response rating, Field Poppy [2, 16]: 100
Plant response rating, Field Poppy [2, 17]: 100
Plant response rating, Field Poppy [2, 18]: 100
Plant response rating, Field Poppy [2, 19]: 85
Barley, Winter plant response rating [3, 13]: 0
Plant response rating, Barley, Winter [3, 14]: 0
Plant response rating, Barley, Winter [3, 15]: 5
Plant response rating (scale of 0 to 100), Barley, Winter ([3]; Preemergence, 31 g ai/ha): 0
Plant response rating, Barley, Winter [3, 16]: 0
Plant response rating, Barley, Winter [3, 17]: 0
Plant response rating, Barley, Winter [3, 18]: 10
Plant response rating, Barley, Winter [3, 19]: 0
Foxtail, Green plant response rating [4, 13]: 75
Plant response rating, Foxtail, Green [4, 14]: 90
Plant response rating, Foxtail, Green [4, 15]: 98
Plant response rating (scale of 0 to 100), Foxtail, Green ([4]; Preemergence, 31 g ai/ha): 15
Plant response rating, Foxtail, Green [4, 16]: 35
Plant response rating, Foxtail, Green [4, 17]: 65
Plant response rating, Foxtail, Green [4, 18]: 70
Plant response rating, Foxtail, Green [4, 19]: 80
Deadnettle plant response rating [5, 13]: 15
Plant response rating, Deadnettle [5, 14]: 35
Plant response rating, Deadnettle [5, 15]: 40
Plant response rating (scale of 0 to 100), Deadnettle ([5]; Preemergence, 31 g ai/ha): 15
Plant response rating, Deadnettle [5, 16]: 40
Plant response rating, Deadnettle [5, 17]: 55
Plant response rating, Deadnettle [5, 18]: 55
Plant response rating, Deadnettle [5, 19]: 15
Blackgrass plant response rating [6, 13]: 65
Plant response rating, Blackgrass [6, 14]: 75
Plant response rating, Blackgrass [6, 15]: 75
Plant response rating (scale of 0 to 100), Blackgrass ([6]; Preemergence, 31 g ai/ha): 25
Plant response rating, Blackgrass [6, 16]: 70
Plant response rating, Blackgrass [6, 17]: 75
Plant response rating, Blackgrass [6, 18]: 80
Plant response rating, Blackgrass [6, 19]: 70
Lambsquarters plant response rating [7, 13]: 95
Plant response rating, Lambsquarters [7, 14]: 100
Plant response rating, Lambsquarters [7, 15]: 100
Plant response rating (scale of 0 to 100), Lambsquarters ([7]; Preemergence, 31 g ai/ha): 55
Plant response rating, Lambsquarters [7, 16]: 100
Plant response rating, Lambsquarters [7, 17]: 100
Plant response rating, Lambsquarters [7, 18]: 100
Plant response rating, Lambsquarters [7, 19]: 95
Radish, Wild plant response rating [8, 13]: 5
Plant response rating, Radish, Wild [8, 14]: 30
Plant response rating, Radish, Wild [8, 15]: 45
Plant response rating (scale of 0 to 100), Radish, Wild ([8]; Preemergence, 31 g ai/ha): 30
Plant response rating, Radish, Wild [8, 16]: 70
Plant response rating, Radish, Wild [8, 17]: 75
Plant response rating, Radish, Wild [8, 18]: 70
Plant response rating, Radish, Wild [8, 19]: 25
Chamomile plant response rating [9, 13]: 85
Plant response rating, Chamomile [9, 14]: 100
Plant response rating, Chamomile [9, 15]: 100
Plant response rating (scale of 0 to 100), Chamomile ([9]; Preemergence, 31 g ai/ha): 90
Plant response rating, Chamomile [9, 16]: 100
Plant response rating, Chamomile [9, 17]: 100
Plant response rating, Chamomile [9, 18]: 100
Plant response rating, Chamomile [9, 19]: 90
Mustard, Wild plant response rating [10, 13]: 10
Plant response rating, Mustard, Wild [10, 14]: 55
Plant response rating, Mustard, Wild [10, 15]: 70
Plant response rating (scale of 0 to 100), Mustard, Wild ([10]; Preemergence, 31 g ai/ha): 0
Plant response rating, Mustard, Wild [10, 16]: 0
Plant response rating, Mustard, Wild [10, 17]: 0
Plant response rating, Mustard, Wild [10, 18]: 0
Plant response rating, Mustard, Wild [10, 19]: 40
Plant response rating, Waterhemp_RES2 [11, 20]: 40
Plant response rating, Waterhemp_RES2 [11, 21]: 40
Plant response rating, Waterhemp_RES2 [11, 22]: 40
Plant response rating, Waterhemp_RES2 [11, 23]: 50
Plant response rating, Waterhemp_RES1 [12, 20]: 70
Plant response rating, Waterhemp_RES1 [12, 21]: 80
Plant response rating, Waterhemp_RES1 [12, 22]: 75
Plant response rating, Waterhemp_RES1 [12, 23]: 80
